Laboratory results: publication doi:10.1101/2025.09.12.675753, “In search of nonlipogenic ABCA1 inducers (NLAI): precision coregulator TR-FRET identifies diverse signatures for LXR ligands” (bioRxiv, 2025)
“Also recorded” adds a separate entry of the source. Like-named read-outs stand apart in the source and are kept apart here. Blank lines part the entries; values can stand above or below the molecule they belong to.

How the values were obtained:
[1] = test system: ABCA1-promoter luciferase in CCF-STTG1 cells; test: ABCA1-luc reporter in CCF-STTG1 astrocytoma cells; type: cell-based, human; conditions: for ABCA1-luc response: 24 hr incubation, normalized to T0 (100%)
From the text: Astrocytoma CCF-STTG1 cells, stably transfected with an ABCA1-promoter linked to a luciferase response element provide a model for ABCA1 induction in astrocytes.[81] […] Apparent inverse agonist activity in cell-based assays can result from true inverse agonist recruitment of corepressors or from antagonist activity towards endogenous sterol LXR agonists. Although we use serum stripped media, antagonism of endogenous LXR agonists cannot be ruled out.
Low passage CCF-STTG1 cells (20,000 cells/well) were seeded in 96-well plates in media containing charcoal-stripped FBS and incubated at 37 °C and 5% CO2 for 24 hours prior to a 24-hour treatment. All compounds were dissolved in DMSO, and final DMSO concentrations never exceeded 1%. After a 24-hour incubation period, add a volume of ONE-GLO™EX Reagent that is equal to the volume of culture medium in each well and incubate for 3 to 5 minutes on the shaker. The luminescent activity of compounds ([…], 10-fold dilution) was examined using the ONE-GLO™EX assay (Promega). The data was normalized to DMSO. The assays were performed in duplicates for each concentration, and the EC50 values were determined from non-linear regression analysis of the dose-response curve generated in GraphPad Prism 9.

[2] = test system: SRE promoter luciferase (SRE-luc) in HepG2 cells; test: SRE-luc reporter in HepG2 cells; type: cell-based, human; conditions: for SRE-luc response: HepG2, normalized to T0
From the text: Our phenotypic high throughput screen (HTS) approach to identify nonlipogenic ABCA1 Inducers (NLAI) originally used counterscreening with a SREBP1c-luciferase reporter (linked to the SREBF1 gene promoter) in human hepatocarcinoma HepG2 cells.[81] Unwanted lipogenesis is mediated by LXR agonists via direct transcriptional activation and indirectly by the effects of SREBP1c.[57] [109] SREBP1c enhances transcription of genes required for synthesis of fatty acids and TG and as the dominant isoform in liver is associated most closely with lipogenesis and TG elevation.[109] […] Binding of SREBP1c to the sterol response element (SRE) induces transcription of lipogenic genes associated with elevated TG. To better model the lipogenic axis in hepatocytes, we use HepG2 cells stably transfected with a luciferase reporter downstream of a SRE promoter (SRE-luc), activation of which requires SREBP1c maturation.
HepG2 cells were cotransfected with SRE (LDLR)-NlucP SuperPiggyBac Transposon and a separate Transposase plasmid (System Biosciences). Cells were expanded for multiple passages followed by selection with puromycin (1ug/ml). Stable cells constitutively express GFP allowed for FACS enrichment and/or cell cloning. Initially, stable pools were compared to low expressing and high expressing enriched pools. The optimal pool was selected based on assay performance (Z’) and was grown and maintained as above, with the addition of 1.0 μg/mL of puromycin biweekly.

[3] = test system: SREBF1, FAS, and SCD1 in HepG2 cells; test: RT-PCR of lipogenic genes in HepG2 cells; type: cell-based, human; conditions: HepG2, 24 hours
Method: Owing to the anomalous response in the reporter assay, we measured lipogenic genes, SREBF1, FAS, and SCD1 by RT-PCR in HepG2 cells in response to treatment with the biphenyl sulfones (Figs 5G–I).
HepG2 cells were seeded in 12-well plates and treated with compounds for 24 hours. Following treatment, cells were washed once with PBS and then lysed in 350 μL of RLT buffer (Qiagen). Lysates were immediately frozen at −80 °C until RNA extraction. Total RNA was extracted using RNeasy Plus Mini columns (Qiagen) according to the manufacturer’s instructions. RNA concentration and purity were assessed using the A260/A280 ratio measured on a Synergy Neo2 plate reader (BioTek). For cDNA synthesis, 2 μg of total RNA was reverse transcribed using SuperScript III reverse transcriptase (Invitrogen), oligo(dT)12–18 primers, and dNTP mix, following the manufacturer’s protocol. Quantitative PCR was performed using TaqMan Gene Expression Master Mix (Invitrogen) with 2 μL of cDNA and gene-specific TaqMan probes in a 20 μL reaction volume per well. The following TaqMan assays were used: ABCA1: Hs01059101_m1, SREBF1: Hs01088691_m1, SCD: Hs01682761_m1, FASN: Hs01005622_m1, and HPRT1 (endogenous control): Hs02800695_m1. qPCR was performed on a StepOne Real-Time PCR System (Applied Biosystems), and gene expression was quantified using the ΔΔCt method.

LXR = test: CRT signature categorization, heat map of response at 1 μM; type: biochemical; conditions: signatures of Table 1
From the text: With the knowledge that corepressors bind to the apo-receptor; whereas coactivator binding requires a ligand-induced conformational change, we can categorize all ligands using their CRT profiles: ligands induce 3 conformations with CoR (destabilizing D, stabilizing S, neutral N) and only 2 conformations with CoA (stabilizing S, neutral N) (Table 1).
To determine which LXR ligands fit with these theoretical CRT signatures, concentration-response curves were interpolated to measure normalized response at 1 μM ligand concentration and plotted as a heat map (Figs 9A, S8).
The CRT signatures of the three agonist and three antagonist classifications were modelled in the same heat map using signatures defined in Table 1 and the measured responses to the real LXR ligands in our study.

LXRβ [4] = molecular target: T1, LXRβ (Homo sapiens, UniProt P55055)
T1 sequence (P55055 222-460 limits assumed): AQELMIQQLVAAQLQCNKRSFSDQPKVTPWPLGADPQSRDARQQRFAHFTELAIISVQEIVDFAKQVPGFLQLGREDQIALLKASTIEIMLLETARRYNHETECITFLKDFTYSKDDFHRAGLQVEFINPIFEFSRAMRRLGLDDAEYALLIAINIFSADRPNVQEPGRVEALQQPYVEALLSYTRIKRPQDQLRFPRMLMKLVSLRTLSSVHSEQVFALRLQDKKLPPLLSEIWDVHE

obese mice on HFD = conditions: cited from earlier work
[5] = test system: mouse model of non-alcoholic steatohepatitis (NASH); conditions: cited from earlier work
[6] = cited from earlier work
LXRα [7] = molecular target: T2, LXRα (Homo sapiens, UniProt Q13133); test: Corepressor (NCOR2, SMRT2) binding CRT, LXRα; conditions: absence of coactivator
T2 sequence (Q13133 209-447 limits assumed): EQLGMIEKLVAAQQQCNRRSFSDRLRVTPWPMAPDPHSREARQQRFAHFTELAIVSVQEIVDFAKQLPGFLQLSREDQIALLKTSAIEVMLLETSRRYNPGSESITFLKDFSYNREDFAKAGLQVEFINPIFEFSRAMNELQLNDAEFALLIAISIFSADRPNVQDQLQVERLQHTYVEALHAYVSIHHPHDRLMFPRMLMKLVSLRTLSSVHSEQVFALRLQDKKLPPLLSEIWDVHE

LXRβ [8] = molecular target: T1, LXRβ; test: Corepressor (NCOR2, SMRT2) binding CRT, LXRβ
LXRα [9] = molecular target: T2, LXRα; conditions: for Effect on 24HC agonism at LXRα: in the presence of 24HC (3 μM); for SRC-1 recruitment to LXRα, efficacy relative to T0: ligand alone, normalized to T0 (100%)
E3/4FAD mice = conditions: cited from earlier work
LXRα [10] = molecular target: T2, LXRα
mice = conditions: highest dose 30 mg/kg qd; cited from earlier work
LXRβ [11] = molecular target: T1, LXRβ; test: Multiplex precision CRT (pCRT), SRC1 and NCoR2, LXRβ; type: biochemical; design: NR-LBD with short coregulator peptides as used in the present work; purchased Thermo Fisher Scientific PV4660; conditions: SRC1-btn 200 nM, NCoR2-FL 200 nM
hamsters = test system: hamsters; design: method as in PMID 19318684; conditions: cited from earlier work
primates = test system: primates; design: method as in PMID 19318684; conditions: 50 mg/kg/day p.o., returned to baseline at day 7; cited from earlier work
participants = test system: participants; design: method as in PMID 19398602; conditions: 300 mg dose; cited from earlier work
NASH mouse model = conditions: cited from earlier work
[12] = test system: high-fat diet (HFD) mouse model; conditions: cited from earlier work

Structure (SMILES): CCOC(=O)c1ccc(CN(Cc2ccc(-c3cccc(S(C)(=O)=O)c3)cc2)S(=O)(=O)c2c(C)cc(C)cc2C)o1 [SR9238]
ABCA1-luc response [1]: inverse agonist activity in cells
SRE-luc response [2]: anomalous activation of SRE at concentrations above 1 μM; also recorded: lowered SRE activation below baseline; also recorded: neutral or antagonist response; also recorded: inverse agonist at < 3 μM concentration
Lipogenic gene transcription (SREBF1, FAS, SCD1) by RT-PCR [3]: reducing lipogenic gene transcription below baseline
CRT signature category (LXR): IA (inverse agonist (IA))
Effect on 24HC agonism at LXRβ (LXRβ [4]; in the presence of 24HC (3 μM)): antagonized the agonism of 24HC at LXRβ
SRC-1 recruitment to LXRβ, efficacy/potency relative to T0 (LXRβ [4]; ligand alone, normalized to T0 (100%)): neither ligand stabilized the LXR:SRC1 complex alone
Plasma TG (obese mice on HFD): plasma TG was suppressed
Hepatic inflammation and fibrosis [5]: significantly reduced hepatic inflammation and fibrosis
Metabolic lability / systemic availability [6]: metabolically labile
Corepressor (NCOR2 and SMRT2) binding to LXRα, ligand effect (LXRα [7]): strong agonist responses
Corepressor (NCOR2 and SMRT2) binding to LXRβ, ligand effect (LXRβ [8]; absence of coactivator): strong agonist responses
Effect on 24HC agonism at LXRα (LXRα [9]): without effect on LXRα
SRC-1 recruitment to LXRα, efficacy relative to T0 (LXRα [9]): neither ligand stabilized the LXR:SRC1 complex alone

Structure (SMILES): Fc1ccc(-c2c3cccc(C(F)(F)F)c3nn2Cc2ccc(F)cc2Cl)cc1 [LXR-623]
Plasma TG (hamsters): did not cause a dose-dependent increase in plasma TG
Liver TG (primates): significant increase in liver TG was observed but only at high dose
Adverse effects (participants): all 6 participants on the highest 300 mg dose reported neurologic or psychiatric adverse effects

Structure (SMILES): Cc1cc(C)c(S(=O)(=O)N(Cc2ccc(-c3cccc(S(C)(=O)=O)c3)cc2)Cc2ccc(C(F)(F)F)o2)c(C)c1 [GSK2033]
ABCA1-luc response [1]: inverse agonist activity in cells; also recorded: mixed antagonist/inverse agonist phenotype
SRE-luc response [2]: neutral or antagonist response; also recorded: mixed antagonist/inverse agonist phenotype
Lipogenic gene transcription (SREBF1, FAS, SCD1) by RT-PCR [3]: reducing lipogenic gene transcription below baseline
CRT signature category (LXR): HA (hard antagonist (HA))
Effect on 24HC agonism at LXRβ (LXRβ [4]): antagonized the agonism of 24HC at LXRβ
SRC-1 recruitment to LXRβ, efficacy/potency relative to T0 (LXRβ [4]): neither ligand stabilized the LXR:SRC1 complex alone
Expression of lipogenic genes, including FAS and SREBP1c (NASH mouse model): increased rather than suppressed
Corepressor (NCOR2 and SMRT2) binding to LXRα, ligand effect (LXRα [7]): does not stabilize a conformation that disrupts corepressor binding to LXRα
SMRT2 binding to LXRβ, ligand effect (LXRβ [8]): selectively displace SMRT2 from LXRβ
Effect on 24HC agonism at LXRα (LXRα [9]): without effect on LXRα
SRC-1 recruitment to LXRα, efficacy relative to T0 (LXRα [9]): neither ligand stabilized the LXR:SRC1 complex alone

Continued, in another order:

SRC-1 recruitment to LXRα, efficacy relative to T0 (LXRα [9]): partial agonist activity at LXRα
Recruitment of coactivator TRAP220 to LXRα (LXRα [10]): very minimal recruitment
Structure (SMILES): CCOC(=O)c1cc(Cl)cc(NC(=O)c2sc(Cl)cc2S(=O)(=O)N(C)c2ccc(OCC)c(OC)c2)c1 [CL3–3]
ABCA1 expression, APOE lipidation, AD phenotypes, TG (E3/4FAD mice): increased ABCA1 expression, enhanced APOE lipidation and reversed multiple AD phenotypes, without increasing TG

SMRT2 binding to LXRβ, ligand effect (LXRβ [8]; absence of coactivator): did not perturb SMRT2 binding to LXRβ
Recruitment of coactivator TRAP220 to LXRα (LXRα [10]): very minimal recruitment
NCOR2 displacement from LXRβ in the presence of SRC1 (pCRT) (LXRβ [11]): fully displaced
Structure (SMILES): CC(C)(O)c1cn(-c2ccc(-c3cccc(S(C)(=O)=O)c3)cc2)c(C(C)(C)c2ccccc2Cl)n1 [XL652]
Weaker potency for ABCA1 induction compared to XL041 ([1]; versus XL041): more than 100 fold
SRE-luc response [2]: anomalous activation of SRE at concentrations above 1 μM; also recorded: little or no activation of SRE at submicromolar concentrations
Efficacy of SRE activation ([2]; concentrations ≤ 1 μM): 20–25 % of T0
Plasma triglycerides (mice): elevated plasma triglycerides only at the highest dose
Corepressor (NCOR2 and SMRT2) binding to LXRα, ligand effect (LXRα [7]): strongly stabilized the corepressor-bound conformation
SMRT2 binding to LXRα, ligand effect (LXRα [7]): stabilization of SMRT2 corepressor binding to LXRα
NCOR2 binding to LXRβ, ligand effect (LXRβ [8]; absence of coactivator): weakly destabilized the NCOR2 complex with both LXR isoforms

EC50 ([2]; Homo sapiens, HepG2 SRE-luc, read-out: EC50, SRE activation): 2800 nM
Recruitment of coactivator TRAP220 to LXRα (LXRα [10]): very minimal recruitment
Structure (SMILES): CCOC(=O)c1cccc(NC(=O)c2sc(Cl)cc2S(=O)(=O)N(C)c2ccc(OCC)c(OCC)c2)c1 [CL2–57]
Plasma and hepatic TG levels [12]: attenuated diet-induced increases in plasma and hepatic TG levels
